Measurements reported in patent US9138003B2, “Phosphonates and derivatives thereof as enhancers of the activity of insecticides” (Syngenta Crop Protection Inc., priority 2002, dated 2015).
Where “and” joins values, the source holds several entries; their conditions need not be identical. Identical values can stand only once.

Tests used:
Type in all cases: in vivo
[1] = tested on: L1/L2 Liriomyza huidobriensis, leaf miner; test: curative control of L1/L2 leaf miner within bean leaves; conditions: for % control, Alone: no BEEP; for % control, +BEEP: with 0.5% BEEP
Description: The activity of a range of insecticides combined with 0.5% bis(2-ethylhexyl)-2-ethylhexyl phosphonate (BEEP) was compared with a corresponding formulation containing no bis(2-ethylhexyl)-2-ethylhexyl phosphonate in a test of curative control of L1/L2 Liriomyza huidobriensis, leaf miner. The results are set out in Table 1 and show % control of this leaf miner within bean leaves.

Aphis gossypii = test: translaminar test (3 day assessment time) against Aphis gossypii; conditions: 0.5% BEOP, no insecticide
Description: The activity of thiamethoxam as Actara 25WG with bis(2-ethylhexyl) octyl phosphonate (BEOP) at 0.5% was compared with Actara containing no bis(2-ethylhexyl) octyl phosphonate in a translaminar test (3 day assessment time) against Aphis gossypii. The results are set out in Table 4 and show % control.

Plutella xylostella = test: feeding/contact test against Plutella xylostella; conditions: for % control, Alone: no BEEP; for % control, +BEEP: with 0.5% BEEP
Description: The activity of lambda-cyhalothrin, profenofos and indoxacarb combined with 0.5% bis(2-ethylhexyl)-2-ethylhexyl phosphonate (BEEP) was compared with a corresponding formulation containing no bis(2-ethylhexyl)-2-ethylhexyl phosphonate in a feeding/contact test against Plutella xylostella. The results are set out in Table 2 and show % control.

R2 Myzus persicae = test: translaminar test (3 day assessment time) against R2 Myzus persicae; conditions: 0.5% BEEP, no insecticide
Description: The activity of lambda-cyhalothrin, as Karate 10CS with 0.5% bis(2-ethylhexyl)-2-ethylhexyl phosphonate (BEEP) was compared with a Karate 10CS containing no bis(2-ethylhexyl)-2-ethylhexyl phosphonate in a translaminar test (3 day assessment time) against R2 Myzus persicae. The results are set out in Table 3 and show % control.

CN1COCN(Cc2cnc(Cl)s2)/C1=N\[N+](=O)[O-] [thiamethoxam]
% control, Alone ([1]; 400 ppm): 0%
% control, +BEEP ([1]; 400 ppm): 20%
% control, Alone ([1]; 600 ppm): 0%
% control, +BEEP ([1]; 600 ppm): 43%
% control, Alone ([1]; 800 ppm): 0%
% control, +BEEP ([1]; 800 ppm): 63%
% control, Alone ([1]; 1000 ppm): 12%
% control, +BEEP ([1]; 1000 ppm): 68%

CCCCCCCCP(=O)(OCC(CC)CCCC)OCC(CC)CCCC (stereo not shown) [BEOP, bis(2-ethylhexyl) octyl phosphonate]
% control, Control +BEOP (Aphis gossypii): 3%

spinosad
% control, Alone ([1]; 400 ppm): 42%
% control, +BEEP ([1]; 400 ppm): 100%
% control, Alone ([1]; 600 ppm): 73%
% control, +BEEP ([1]; 600 ppm): 100%
% control, Alone ([1]; 800 ppm): 82%
% control, +BEEP ([1]; 800 ppm): 100%
% control, Alone ([1]; 1000 ppm): 81%
% control, +BEEP ([1]; 1000 ppm): 100%

COC(=O)N(C(=O)N1CO[C@@]2(C(=O)OC)Cc3cc(Cl)ccc3C2=N1)c1ccc(OC(F)(F)F)cc1 [Indoxacarb]
% control, Alone (Plutella xylostella; 0.16 ppm): 32%
% control, +BEEP (Plutella xylostella; 0.16 ppm): 57%
% control, Alone (Plutella xylostella; 0.31 ppm): 26%
% control, +BEEP (Plutella xylostella; 0.31 ppm): 80%
% control, Alone (Plutella xylostella; 0.63 ppm): 32%
% control, +BEEP (Plutella xylostella; 0.63 ppm): 98%
% control, Alone (Plutella xylostella; 1.25 ppm): 80%
% control, +BEEP (Plutella xylostella; 1.25 ppm): 100%

Abamectin
% control, Alone ([1]; 3.13 ppm): 27%
% control, +BEEP ([1]; 3.13 ppm): 99%
% control, Alone ([1]; 6.25 ppm): 48%
% control, +BEEP ([1]; 6.25 ppm): 100%
% control, Alone ([1]; 12.5 ppm): 74%
% control, +BEEP ([1]; 12.5 ppm): 100%
% control, Alone ([1]; 25 ppm): 96%
% control, +BEEP ([1]; 25 ppm): 100%

Nc1nc(N)nc(NC2CC2)n1 [cypromazine]
% control, Alone ([1]; 25 ppm): 27%
% control, +BEEP ([1]; 25 ppm): 28%
% control, Alone ([1]; 50 ppm): 57%
% control, +BEEP ([1]; 50 ppm): 83%
% control, Alone ([1]; 100 ppm): 81%
% control, +BEEP ([1]; 100 ppm): 100%
% control, Alone ([1]; 200 ppm): 100%
% control, +BEEP ([1]; 200 ppm): 100%

CCCSP(=O)(OCC)Oc1ccc(Br)cc1Cl (stereo not shown) [Profenofos]
% control, Alone (Plutella xylostella; 12.5 ppm): 16%
% control, +BEEP (Plutella xylostella; 12.5 ppm): 65%
% control, Alone (Plutella xylostella; 25 ppm): 41%
% control, +BEEP (Plutella xylostella; 25 ppm): 95%
% control, Alone (Plutella xylostella; 50 ppm): 95%
% control, +BEEP (Plutella xylostella; 50 ppm): 100%
% control, Alone (Plutella xylostella; 100 ppm): 100%
% control, +BEEP (Plutella xylostella; 100 ppm): 100%

N#Cc1nn(-c2c(Cl)cc(C(F)(F)F)cc2Cl)c(N)c1[S+]([O-])C(F)(F)F (stereo not shown) [Fipronil]
% control, Alone ([1]; 400 ppm): 60%
% control, +BEEP ([1]; 400 ppm): 100%
% control, Alone ([1]; 600 ppm): 69%
% control, +BEEP ([1]; 600 ppm): 100%
% control, Alone ([1]; 800 ppm): 66%
% control, +BEEP ([1]; 800 ppm): 100%
% control, Alone ([1]; 1000 ppm): 83%
% control, +BEEP ([1]; 1000 ppm): 100%

CC1(C)[C@H](C(=O)O[C@H](C#N)c2cccc(Oc3ccccc3)c2)[C@@H]1/C=C(\Cl)C(F)(F)F (racemic) [Lambda-cyhalothrin]
% control, Alone (Plutella xylostella; 0.31 ppm): 54%
% control, +BEEP (Plutella xylostella; 0.31 ppm): 100%
% control, Alone (Plutella xylostella; 0.63 ppm): 66%
% control, +BEEP (Plutella xylostella; 0.63 ppm): 100%
% control, Alone (Plutella xylostella; 1.25 ppm): 83%
% control, +BEEP (Plutella xylostella; 1.25 ppm): 100%
% control, Alone (Plutella xylostella; 2.5 ppm): 95%
% control, +BEEP (Plutella xylostella; 2.5 ppm): 100%

CCCCC(CC)COP(=O)(CC(CC)CCCC)OCC(CC)CCCC (stereo not shown) [BEEP, bis(2-ethylhexyl)-2-ethylhexyl phosphonate]
% control, Control +BEEP ([1]; 0.5% BEEP, no insecticide): 0%
% control, Control +BEEP (R2 Myzus persicae): 4%
% control, Control +BEEP (Plutella xylostella; 0.5% BEEP, no insecticide): 11% and 20%

CCOCn1c(-c2ccc(Cl)cc2)c(C#N)c(Br)c1C(F)(F)F [chlorfenpyr]
% control, Alone ([1]; 400 ppm): 0%
% control, +BEEP ([1]; 400 ppm): 100%
% control, Alone ([1]; 600 ppm): 15%
% control, +BEEP ([1]; 600 ppm): 100%
% control, Alone ([1]; 800 ppm): 0%
% control, +BEEP ([1]; 800 ppm): 100%
% control, Alone ([1]; 1000 ppm): 28%
% control, +BEEP ([1]; 1000 ppm): 100%
